Experimental data from article PMC10465233, “Lys-urea-Aad, Lys-urea-Cmc and Lys-urea-Cms as potential pharmacophores for the design of PSMA-targeted radioligands to reduce off-target uptake in kidneys and salivary glands” (Theranostics, 2023).
Where “and” joins values, the source holds several entries; their conditions need not be identical. Equal entries are not always repeated. Where two headings read alike, the source gives them in different places.

Key:
[1] = system: LNCaP tumor-bearing mice; conditions: cited from earlier work
[2] = design: method as in earlier work; conditions: cited from earlier work
[3] = system: LNCaP tumor-bearing mice; assay: Ex vivo biodistribution in LNCaP tumor-bearing mice; design: species or system mouse; conditions: for Time of peak tumor uptake: post-injection
Procedure: Imaging, biodistribution and radioligand therapy experiments were performed following previously published procedures using male NOD-scid IL2Rg^null (NSG) or NOD.Cg-Rag1^tm1MomIl2rg^tm1Wjl/SzJ (NRG) mice [10]-[12],[14]-[15]. The experiments were conducted according to the guidelines established by the Canadian Council on Animal Care and approved by Animal Ethics Committee of the University of British Columbia. The mice were briefly sedated by inhalation of 2% isoflurane in oxygen, and implanted subcutaneously with 1×10^7 LNCaP cells behind the left shoulder. The mice were imaged or used in biodistribution studies when the tumor grew to 5-8 mm in diameter over a period of 4-5 weeks.
For biodistribution studies, the mice were injected with the radioligand (2-4 MBq) as described above. For blocking, the mice were co-injected with nonradioactive DCFPyL (0.5 mg). At predetermined time points, the mice were sedated by isoflurane inhalation and euthanized by CO2 inhalation. Blood was withdrawn by cardiac puncture, and organs/tissues of interest were collected, weighed and counted using an automatic gamma counter (Tables S4-S7).

O=C([O-])CN1CCN(CC(=O)[O-])CCN(CC(=O)NCC2CCC(C(=O)NC(Cc3c4ccccc4cc4ccccc34)C(=O)NCCCCC(NC(=O)NC(CCC(=O)O)C(=O)O)C(=O)O)CC2)CCN(CC(=O)[O-])CC1.[68Ga+3] (centres unmarked) [[^68Ga]Ga-HTK03141]
Kidney uptake ([1]; 1 h post-injection): 170±26.4 %ID/g | Tumor uptake ([1]; 1 h post-injection): 23.1±6.11 %ID/g | Salivary gland uptake ([1]; 1 h post-injection, unreported data in b5): 4.99±0.88 %ID/g | Peaked tumor uptake [1]: 23.1 %ID/g

O=C([O-])CN1CCN(CC(=O)[O-])CCN(CC(=O)NCC2CCC(C(=O)NC(Cc3c4ccccc4cc4ccccc34)C(=O)NCCCCC(NC(=O)NC(CCCC(=O)O)C(=O)O)C(=O)O)CC2)CCN(CC(=O)[O-])CC1.[177Lu+3] (centres unmarked) [[^177Lu]Lu-HTK03149]
Kinetics value ([2]; source organ Brain): 2.23E-03 MBq-h/MBq | Kinetics value ([2]; source organ Cortical bone): 7.60E-02 MBq-h/MBq | Kinetics value ([2]; source organ Heart): 1.94E-02 MBq-h/MBq | Kinetics value ([2]; source organ Kidneys): 2.41E-01 MBq-h/MBq | Kinetics value ([2]; source organ Large intestine contents): 9.24E-02 MBq-h/MBq | Kinetics value ([2]; source organ Liver): 3.91E-01 MBq-h/MBq | Kinetics value ([2]; source organ Lungs): 1.72E-02 MBq-h/MBq | Kinetics value ([2]; source organ Pancreas): 1.79E-02 MBq-h/MBq | Kinetics value ([2]; source organ Remainder of the body): 5.31E-01 MBq-h/MBq | Kinetics value ([2]; source organ Spleen): 2.30E-02 MBq-h/MBq | Kinetics value ([2]; source organ Stomach): 8.07E-03 MBq-h/MBq | Kinetics value ([2]; source organ Testes): 1.29E-02 MBq-h/MBq | Kinetics value ([2]; source organ Thyroid): 2.03E-03 MBq-h/MBq | Kinetics value ([2]; source organ Urinary bladder): 8.14E-01 MBq-h/MBq

COc1ccc(CCCC(=O)NCC(=O)N[C@@H](CCCCNC(=O)CN2CCN(CC(=O)[O-])CCN(CC(=O)[O-])CCN(CC(=O)[O-])CC2)C(=O)NC[C@H]2CC[C@H](C(=O)N[C@@H](Cc3c4ccccc4cc4ccccc34)C(=O)NCCCC[C@H](NC(=O)N[C@@H](COCC(=O)O)C(=O)O)C(=O)O)CC2)cc1.[177Lu+3] [[^177Lu]Lu-HTK04028]
Adrenal glands uptake ([3]; 1 h post-injection): 3.25 ± 0.34 %ID/g | Blood uptake ([3]; 1 h post-injection): 17.7 ± 2.10 %ID/g | Blood:Salivary gland uptake ratio ([3]; 1 h post-injection): 6.93 ± 0.33 | Bone uptake ([3]; 1 h post-injection): 0.99 ± 0.21 %ID/g | Brain uptake ([3]; 1 h post-injection): 0.26 ± 0.03 %ID/g | Fat uptake ([3]; 1 h post-injection): 1.26 ± 0.21 %ID/g | Heart uptake ([3]; 1 h post-injection): 4.15 ± 0.31 %ID/g | Intestines uptake ([3]; 1 h post-injection): 1.23 ± 0.24 %ID/g | Kidneys uptake ([3]; 1 h post-injection): 8.30 ± 1.58 %ID/g | Lacrimal glands uptake ([3]; 1 h post-injection): 0.51 ± 0.23 %ID/g | Liver uptake ([3]; 1 h post-injection): 2.93 ± 0.51 %ID/g | Lungs uptake ([3]; 1 h post-injection): 7.88 ± 1.77 %ID/g | Muscle uptake ([3]; 1 h post-injection): 1.32 ± 0.19 %ID/g | Pancreas uptake ([3]; 1 h post-injection): 1.53 ± 0.22 %ID/g | Salivary glands uptake ([3]; 1 h post-injection): 2.55 ± 0.21 %ID/g | Spleen uptake ([3]; 1 h post-injection): 1.53 ± 0.23 %ID/g | Stomach uptake ([3]; 1 h post-injection): 0.51 ± 0.18 %ID/g | Testes uptake ([3]; 1 h post-injection): 2.26 ± 0.46 %ID/g | Thyroid uptake ([3]; 1 h post-injection): 3.30 ± 0.42 %ID/g | Tumor uptake ([3]; 1 h post-injection): 19.0 ± 5.86 %ID/g | Tumor:Blood uptake ratio ([3]; 1 h post-injection): 1.11 ± 0.45 | Tumor:Kidney uptake ratio ([3]; 1 h post-injection): 2.39 ± 0.99 | Tumor:Muscle uptake ratio ([3]; 1 h post-injection): 14.5 ± 4.46 | Tumor:Salivary gland uptake ratio ([3]; 1 h post-injection): 7.60 ± 2.89 | Adrenal glands uptake ([3]; 4 h post-injection): 2.18 ± 0.33 %ID/g | Blood uptake ([3]; 4 h post-injection): 12.2 ± 1.66 %ID/g | Blood:Salivary gland uptake ratio ([3]; 4 h post-injection): 7.09 ± 1.45 | Bone uptake ([3]; 4 h post-injection): 0.63 ± 0.10 %ID/g | Brain uptake ([3]; 4 h post-injection): 0.19 ± 0.02 %ID/g | Fat uptake ([3]; 4 h post-injection): 0.89 ± 0.24 %ID/g | Heart uptake ([3]; 4 h post-injection): 2.67 ± 0.31 %ID/g | Intestines uptake ([3]; 4 h post-injection): 1.04 ± 0.12 %ID/g | Kidneys uptake ([3]; 4 h post-injection): 9.21 ± 2.76 %ID/g | Lacrimal glands uptake ([3]; 4 h post-injection): 0.39 ± 0.19 %ID/g | Liver uptake ([3]; 4 h post-injection): 2.29 ± 0.55 %ID/g | Lungs uptake ([3]; 4 h post-injection): 5.79 ± 0.44 %ID/g | Muscle uptake ([3]; 4 h post-injection): 0.83 ± 0.09 %ID/g | Pancreas uptake ([3]; 4 h post-injection): 1.24 ± 0.04 %ID/g | Salivary glands uptake ([3]; 4 h post-injection): 1.75 ± 0.25 %ID/g | Spleen uptake ([3]; 4 h post-injection): 1.44 ± 0.31 %ID/g | Stomach uptake ([3]; 4 h post-injection): 0.45 ± 0.06 %ID/g | Testes uptake ([3]; 4 h post-injection): 2.66 ± 0.41 %ID/g | Thyroid uptake ([3]; 4 h post-injection): 2.30 ± 0.30 %ID/g | Tumor uptake ([3]; 4 h post-injection): 42.6 ± 11.6 %ID/g | Tumor:Blood uptake ratio ([3]; 4 h post-injection): 3.60 ± 1.24 | Tumor:Kidney uptake ratio ([3]; 4 h post-injection): 4.89 ± 1.58 | Tumor:Muscle uptake ratio ([3]; 4 h post-injection): 52.2 ± 17.4 | Tumor:Salivary gland uptake ratio ([3]; 4 h post-injection): 24.5 ± 5.95 | Adrenal glands uptake ([3]; 24 h post-injection): 0.73 ± 0.13 %ID/g | Blood uptake ([3]; 24 h post-injection): 0.82 ± 0.11 %ID/g | Blood:Salivary gland uptake ratio ([3]; 24 h post-injection): 1.88 ± 0.42 | Bone uptake ([3]; 24 h post-injection): 0.11 ± 0.02 %ID/g | Brain uptake ([3]; 24 h post-injection): 0.02 ± 0.00 %ID/g | Fat uptake ([3]; 24 h post-injection): 0.14 ± 0.02 %ID/g | Heart uptake ([3]; 24 h post-injection): 0.36 ± 0.03 %ID/g | Intestines uptake ([3]; 24 h post-injection): 0.23 ± 0.05 %ID/g | Kidneys uptake ([3]; 24 h post-injection): 4.32 ± 0.58 %ID/g | Lacrimal glands uptake ([3]; 24 h post-injection): 0.05 ± 0.04 %ID/g | Liver uptake ([3]; 24 h post-injection): 0.54 ± 0.09 %ID/g | Lungs uptake ([3]; 24 h post-injection): 1.08 ± 0.72 %ID/g | Muscle uptake ([3]; 24 h post-injection): 0.11 ± 0.02 %ID/g | Pancreas uptake ([3]; 24 h post-injection): 0.15 ± 0.02 %ID/g | Salivary glands uptake ([3]; 24 h post-injection): 0.45 ± 0.10 %ID/g | Spleen uptake ([3]; 24 h post-injection): 0.48 ± 0.14 %ID/g | Stomach uptake ([3]; 24 h post-injection): 0.31 ± 0.10 %ID/g | Testes uptake ([3]; 24 h post-injection): 0.55 ± 0.05 %ID/g | Thyroid uptake ([3]; 24 h post-injection): 0.52 ± 0.08 %ID/g | Tumor uptake ([3]; 24 h post-injection): 30.2 ± 2.74 %ID/g | Tumor:Blood uptake ratio ([3]; 24 h post-injection): 37.2 ± 4.22 | Tumor:Kidney uptake ratio ([3]; 24 h post-injection): 7.06 ± 0.86 | Tumor:Muscle uptake ratio ([3]; 24 h post-injection): 275 ± 35.3 | Tumor:Salivary gland uptake ratio ([3]; 24 h post-injection): 69.3 ± 15.8 | Adrenal glands uptake ([3]; 72 h post-injection): 0.48 ± 0.17 %ID/g | Blood uptake ([3]; 72 h post-injection): 0.05 ± 0.01 %ID/g | Blood:Salivary gland uptake ratio ([3]; 72 h post-injection): 0.26 ± 0.06 | Bone uptake ([3]; 72 h post-injection): 0.05 ± 0.02 %ID/g | Brain uptake ([3]; 72 h post-injection): 0.01 ± 0.00 %ID/g | Fat uptake ([3]; 72 h post-injection): 0.06 ± 0.02 %ID/g | Heart uptake ([3]; 72 h post-injection): 0.12 ± 0.03 %ID/g | Intestines uptake ([3]; 72 h post-injection): 0.07 ± 0.03 %ID/g | Kidneys uptake ([3]; 72 h post-injection): 1.77 ± 0.25 %ID/g | Lacrimal glands uptake ([3]; 72 h post-injection): 0.01 ± 0.01 %ID/g | Liver uptake ([3]; 72 h post-injection): 0.22 ± 0.02 %ID/g | Lungs uptake ([3]; 72 h post-injection): 0.18 ± 0.02 %ID/g | Muscle uptake ([3]; 72 h post-injection): 0.03 ± 0.01 %ID/g | Pancreas uptake ([3]; 72 h post-injection): 0.05 ± 0.01 %ID/g | Salivary glands uptake ([3]; 72 h post-injection): 0.19 ± 0.05 %ID/g | Spleen uptake ([3]; 72 h post-injection): 0.49 ± 0.16 %ID/g | Stomach uptake ([3]; 72 h post-injection): 0.07 ± 0.07 %ID/g | Testes uptake ([3]; 72 h post-injection): 0.31 ± 0.05 %ID/g | Thyroid uptake ([3]; 72 h post-injection): 0.24 ± 0.04 %ID/g | Tumor uptake ([3]; 72 h post-injection): 26.1 ± 7.29 %ID/g | Tumor:Blood uptake ratio ([3]; 72 h post-injection): 550 ± 108 | Tumor:Kidney uptake ratio ([3]; 72 h post-injection): 14.6 ± 2.72 | Tumor:Muscle uptake ratio ([3]; 72 h post-injection): 886 ± 181 | Tumor:Salivary gland uptake ratio ([3]; 72 h post-injection): 144 ± 35.6 | Adrenal glands uptake ([3]; 120 h post-injection): 0.33 ± 0.05 %ID/g | Blood uptake ([3]; 120 h post-injection): 0.02 ± 0.00 %ID/g | Blood:Salivary gland uptake ratio ([3]; 120 h post-injection): 0.17 ± 0.04 | Bone uptake ([3]; 120 h post-injection): 0.04 ± 0.02 %ID/g | Fat uptake ([3]; 120 h post-injection): 0.03 ± 0.01 %ID/g | Heart uptake ([3]; 120 h post-injection): 0.07 ± 0.01 %ID/g | Intestines uptake ([3]; 120 h post-injection): 0.08 ± 0.05 %ID/g | Kidneys uptake ([3]; 120 h post-injection): 1.16 ± 0.13 %ID/g | Liver uptake ([3]; 120 h post-injection): 0.16 ± 0.02 %ID/g | Lungs uptake ([3]; 120 h post-injection): 0.09 ± 0.01 %ID/g | Muscle uptake ([3]; 120 h post-injection): 0.02 ± 0.00 %ID/g | Pancreas uptake ([3]; 120 h post-injection): 0.03 ± 0.00 %ID/g | Salivary glands uptake ([3]; 120 h post-injection): 0.11 ± 0.03 %ID/g | Spleen uptake ([3]; 120 h post-injection): 0.54 ± 0.15 %ID/g | Stomach uptake ([3]; 120 h post-injection): 0.10 ± 0.10 %ID/g | Testes uptake ([3]; 120 h post-injection): 0.22 ± 0.01 %ID/g | Thyroid uptake ([3]; 120 h post-injection): 0.13 ± 0.02 %ID/g | Tumor uptake ([3]; 120 h post-injection): ~ 28 %ID/g | Tumor:Blood uptake ratio ([3]; 120 h post-injection): 1714 ± 320 | Tumor:Kidney uptake ratio ([3]; 120 h post-injection): 24.9 ± 5.16 | Tumor:Muscle uptake ratio ([3]; 120 h post-injection): 1825 ± 415 | Tumor:Salivary gland uptake ratio ([3]; 120 h post-injection): 284 ± 87.9 | Tumor uptake ([3]; 120 h post-injection, listed as [177Lu]Lu-HTK04028): 28.4 ± 5.11 %ID/g | Peaked average tumor uptake ([3]; peak over 1-120 h post-injection): ~ 43 %ID/g and 42.6 %ID/g | Time of peak tumor uptake [3]: 4 h | Time of peak tumor uptake ([3]; listed as 177Lu-labeled HTK04028): 4 to 24 h
